Assay results: patent US20100160351A1, “PHARMACEUTICAL COMPOSITIONS AND METHODS FOR TREATING HYPERURICEMIA AND RELATED DISORDERS” (NUON THERAPEUTICS, INC., priority 2008, published 2010)

Tested on: serum uric acid (sUA) levels in hyperuricemic patients
Assay: PRESTO study: change in serum uric acid in hyperuricemic patients (baseline >=8 mg/dL), Tranilast twice daily for 1 or 3 months
Format: in vivo, human
Protocol: The PRESTO (Prevention of Restenosis with Tranilast and its Outcomes) study was a multicenter study of ˜11,500 patients undergoing percutaneous transluminal coronary revascularization (PTCR) with or without stenting for single or multiple vessels over a 9-month period. The study compared the composite clinical event rate of death, myocardial infarction, or need for ischemia-driven target vessel revascularization in patients treated with Tranilast (300 and 450 mg twice daily) for 1 or 3 months versus placebo. Description of the study protocol and patient population can be found in Holmes et al., The PRESTO (Prevention of Restenosis with Tranilast and its Outcomes) protocol: A double-blind, placebo-controlled trial, Am Heart J 2000; 139:23-31; and Holmes et al., Results of Prevention of REStenosis with Tranilast and its Outcomes (PRESTO) Trial, Circulation. 2002; 106:1243, both of which are incorporated by reference herein in their entirety.
Gout was a contraindication for patient enrollment in the PRESTO trial. Nevertheless, 1100 patients enrolled in the trial were identified with baseline hyperuricemia defined as initial serum uric acid (sUA) levels greater than or equal to 7 mg/dL. Of these, approximately 300 participants had baseline serum uric acid levels greater than or equal to 8 mg/dL. […] As indicated in FIG. 1 and Table 4, some patients were treated with placebo, some patients were treated with Tranilast for 4 weeks followed by placebo, and some patients were treated with Tranilast for 12 weeks.

SMILES: COc1ccc(/C=C/C(=O)Nc2ccccc2C(=O)O)cc1OC [Tranilast, 2-[[3-(3,4-dimethoxyphenyl)-1-oxo-2-propenyl]amino]benzoic acid]
- Change from Baseline in Uric Acid, Max (3M TRAN 300 mg, Follow-Up): 3.04 mg/dL
- Change from Baseline in Uric Acid, Mean (SD) (3M TRAN 300 mg, Follow-Up): −0.00 (1.519) mg/dL
- Change from Baseline in Uric Acid, Median (3M TRAN 300 mg, Follow-Up): -0.13 mg/dL
- Change from Baseline in Uric Acid, Min (3M TRAN 300 mg, Follow-Up): -3.00 mg/dL
- Change from Baseline in Uric Acid, Max (3M TRAN 300 mg, Post-PTCR): 1.90 mg/dL
- Change from Baseline in Uric Acid, Mean (SD) (3M TRAN 300 mg, Post-PTCR): −1.81 (1.966) mg/dL
- Change from Baseline in Uric Acid, Median (3M TRAN 300 mg, Post-PTCR): -1.58 mg/dL
- Change from Baseline in Uric Acid, Min (3M TRAN 300 mg, Post-PTCR): -14.79 mg/dL
- Change from Baseline in Uric Acid, Max (3M TRAN 300 mg, Week 1): 3.14 mg/dL
- Change from Baseline in Uric Acid, Mean (SD) (3M TRAN 300 mg, Week 1): −2.96 (2.394) mg/dL
- Change from Baseline in Uric Acid, Median (3M TRAN 300 mg, Week 1): -2.85 mg/dL
- Change from Baseline in Uric Acid, Min (3M TRAN 300 mg, Week 1): -15.66 mg/dL
- Change from Baseline in Uric Acid, Max (3M TRAN 300 mg, Week 2): 2.30 mg/dL
- Change from Baseline in Uric Acid, Mean (SD) (3M TRAN 300 mg, Week 2): −2.98 (2.224) mg/dL
- Change from Baseline in Uric Acid, Median (3M TRAN 300 mg, Week 2): -2.94 mg/dL
- Change from Baseline in Uric Acid, Min (3M TRAN 300 mg, Week 2): -15.09 mg/dL
- Change from Baseline in Uric Acid, Max (3M TRAN 300 mg, Week 3): 1.92 mg/dL
- Change from Baseline in Uric Acid, Mean (SD) (3M TRAN 300 mg, Week 3): −2.92 (1.946) mg/dL
- Change from Baseline in Uric Acid, Median (3M TRAN 300 mg, Week 3): -3.00 mg/dL
- Change from Baseline in Uric Acid, Min (3M TRAN 300 mg, Week 3): -6.13 mg/dL
- Change from Baseline in Uric Acid, Max (3M TRAN 300 mg, Week 4): 1.98 mg/dL
- Change from Baseline in Uric Acid, Mean (SD) (3M TRAN 300 mg, Week 4): −2.83 (2.212) mg/dL
- Change from Baseline in Uric Acid, Median (3M TRAN 300 mg, Week 4): -2.80 mg/dL
- Change from Baseline in Uric Acid, Min (3M TRAN 300 mg, Week 4): -14.30 mg/dL
- Change from Baseline in Uric Acid, Max (3M TRAN 300 mg, Week 6): 8.50 mg/dL
- Change from Baseline in Uric Acid, Mean (SD) (3M TRAN 300 mg, Week 6): −2.75 (2.755) mg/dL
- Change from Baseline in Uric Acid, Median (3M TRAN 300 mg, Week 6): -3.00 mg/dL
- Change from Baseline in Uric Acid, Min (3M TRAN 300 mg, Week 6): -15.65 mg/dL
- Change from Baseline in Uric Acid, Max (3M TRAN 300 mg, Week 8): 1.70 mg/dL
- Change from Baseline in Uric Acid, Mean (SD) (3M TRAN 300 mg, Week 8): −2.76 (2.451) mg/dL
- Change from Baseline in Uric Acid, Median (3M TRAN 300 mg, Week 8): -2.71 mg/dL
- Change from Baseline in Uric Acid, Min (3M TRAN 300 mg, Week 8): -15.77 mg/dL
- Change from Baseline in Uric Acid, Max (3M TRAN 300 mg, Week 10): 2.30 mg/dL
- Change from Baseline in Uric Acid, Mean (SD) (3M TRAN 300 mg, Week 10): −2.97 (2.490) mg/dL
- Change from Baseline in Uric Acid, Median (3M TRAN 300 mg, Week 10): -2.98 mg/dL
- Change from Baseline in Uric Acid, Min (3M TRAN 300 mg, Week 10): -15.65 mg/dL
- Change from Baseline in Uric Acid, Max (3M TRAN 300 mg, Week 12): 3.60 mg/dL
- Change from Baseline in Uric Acid, Mean (SD) (3M TRAN 300 mg, Week 12): −2.74 (2.634) mg/dL
- Change from Baseline in Uric Acid, Median (3M TRAN 300 mg, Week 12): -2.69 mg/dL
- Change from Baseline in Uric Acid, Min (3M TRAN 300 mg, Week 12): -16.02 mg/dL
- Change from Baseline in Uric Acid, Max (3M TRAN 450 mg, Follow-Up): 1.80 mg/dL
- Change from Baseline in Uric Acid, Mean (SD) (3M TRAN 450 mg, Follow-Up): −0.67 (1.277) mg/dL
- Change from Baseline in Uric Acid, Median (3M TRAN 450 mg, Follow-Up): -0.70 mg/dL
- Change from Baseline in Uric Acid, Min (3M TRAN 450 mg, Follow-Up): -2.90 mg/dL
- Change from Baseline in Uric Acid, Max (3M TRAN 450 mg, Post-PTCR): 1.70 mg/dL
- Change from Baseline in Uric Acid, Mean (SD) (3M TRAN 450 mg, Post-PTCR): −2.16 (1.577) mg/dL
- Change from Baseline in Uric Acid, Median (3M TRAN 450 mg, Post-PTCR): -1.90 mg/dL
- Change from Baseline in Uric Acid, Min (3M TRAN 450 mg, Post-PTCR): -7.34 mg/dL
- Change from Baseline in Uric Acid, Max (3M TRAN 450 mg, Week 1): 0.90 mg/dL
- Change from Baseline in Uric Acid, Mean (SD) (3M TRAN 450 mg, Week 1): −3.84 (1.839) mg/dL
- Change from Baseline in Uric Acid, Median (3M TRAN 450 mg, Week 1): -3.99 mg/dL
- Change from Baseline in Uric Acid, Min (3M TRAN 450 mg, Week 1): -8.79 mg/dL
- Change from Baseline in Uric Acid, Max (3M TRAN 450 mg, Week 2): 0.92 mg/dL
- Change from Baseline in Uric Acid, Mean (SD) (3M TRAN 450 mg, Week 2): −4.05 (1.861) mg/dL
- Change from Baseline in Uric Acid, Median (3M TRAN 450 mg, Week 2): -4.56 mg/dL
- Change from Baseline in Uric Acid, Min (3M TRAN 450 mg, Week 2): -8.72 mg/dL
- Change from Baseline in Uric Acid, Max (3M TRAN 450 mg, Week 3): 1.50 mg/dL
- Change from Baseline in Uric Acid, Mean (SD) (3M TRAN 450 mg, Week 3): −2.84 (2.227) mg/dL
- Change from Baseline in Uric Acid, Median (3M TRAN 450 mg, Week 3): -3.79 mg/dL
- Change from Baseline in Uric Acid, Min (3M TRAN 450 mg, Week 3): -5.79 mg/dL
- Change from Baseline in Uric Acid, Max (3M TRAN 450 mg, Week 4): 1.43 mg/dL
- Change from Baseline in Uric Acid, Mean (SD) (3M TRAN 450 mg, Week 4): −3.70 (2.190) mg/dL
- Change from Baseline in Uric Acid, Median (3M TRAN 450 mg, Week 4): -3.90 mg/dL
- Change from Baseline in Uric Acid, Min (3M TRAN 450 mg, Week 4): -8.40 mg/dL
- Change from Baseline in Uric Acid, Max (3M TRAN 450 mg, Week 6): 2.70 mg/dL
- Change from Baseline in Uric Acid, Mean (SD) (3M TRAN 450 mg, Week 6): −3.89 (2.265) mg/dL
- Change from Baseline in Uric Acid, Median (3M TRAN 450 mg, Week 6): -4.39 mg/dL
- Change from Baseline in Uric Acid, Min (3M TRAN 450 mg, Week 6): -8.69 mg/dL
- Change from Baseline in Uric Acid, Max (3M TRAN 450 mg, Week 8): 1.40 mg/dL
- Change from Baseline in Uric Acid, Mean (SD) (3M TRAN 450 mg, Week 8): −3.65 (2.104) mg/dL
- Change from Baseline in Uric Acid, Median (3M TRAN 450 mg, Week 8): -3.83 mg/dL
- Change from Baseline in Uric Acid, Min (3M TRAN 450 mg, Week 8): -7.16 mg/dL
- Change from Baseline in Uric Acid, Max (3M TRAN 450 mg, Week 10): 1.50 mg/dL
- Change from Baseline in Uric Acid, Mean (SD) (3M TRAN 450 mg, Week 10): −3.73 (2.306) mg/dL
- Change from Baseline in Uric Acid, Median (3M TRAN 450 mg, Week 10): -4.10 mg/dL
- Change from Baseline in Uric Acid, Min (3M TRAN 450 mg, Week 10): -8.60 mg/dL
- Change from Baseline in Uric Acid, Max (3M TRAN 450 mg, Week 12): 0.50 mg/dL
- Change from Baseline in Uric Acid, Mean (SD) (3M TRAN 450 mg, Week 12): −3.79 (2.065) mg/dL
- Change from Baseline in Uric Acid, Median (3M TRAN 450 mg, Week 12): -4.30 mg/dL
- Change from Baseline in Uric Acid, Min (3M TRAN 450 mg, Week 12): -8.12 mg/dL
- serum uric acid levels in patients treated with Tranilast (analysis of PRESTO data, 300 and 450 mg twice daily): markedly decreased
